Assay results published in patent publication US9283222B2 (priority 2006, dated 2016).
Where two headings read alike, the source gives them in different places.

Target: Recombinant Human Poly(ADP-Ribose) Polymerase (PARP), PARP-1 (Homo sapiens (Human), UniProt P09874)
Details: read-out: PARP-1 (Ki)
[1] = Table 1, text calls the values EC50s

Recombinant Human Poly(ADP-Ribose) Polymerase (PARP), PARP-1, sequence (P09874 whole entry): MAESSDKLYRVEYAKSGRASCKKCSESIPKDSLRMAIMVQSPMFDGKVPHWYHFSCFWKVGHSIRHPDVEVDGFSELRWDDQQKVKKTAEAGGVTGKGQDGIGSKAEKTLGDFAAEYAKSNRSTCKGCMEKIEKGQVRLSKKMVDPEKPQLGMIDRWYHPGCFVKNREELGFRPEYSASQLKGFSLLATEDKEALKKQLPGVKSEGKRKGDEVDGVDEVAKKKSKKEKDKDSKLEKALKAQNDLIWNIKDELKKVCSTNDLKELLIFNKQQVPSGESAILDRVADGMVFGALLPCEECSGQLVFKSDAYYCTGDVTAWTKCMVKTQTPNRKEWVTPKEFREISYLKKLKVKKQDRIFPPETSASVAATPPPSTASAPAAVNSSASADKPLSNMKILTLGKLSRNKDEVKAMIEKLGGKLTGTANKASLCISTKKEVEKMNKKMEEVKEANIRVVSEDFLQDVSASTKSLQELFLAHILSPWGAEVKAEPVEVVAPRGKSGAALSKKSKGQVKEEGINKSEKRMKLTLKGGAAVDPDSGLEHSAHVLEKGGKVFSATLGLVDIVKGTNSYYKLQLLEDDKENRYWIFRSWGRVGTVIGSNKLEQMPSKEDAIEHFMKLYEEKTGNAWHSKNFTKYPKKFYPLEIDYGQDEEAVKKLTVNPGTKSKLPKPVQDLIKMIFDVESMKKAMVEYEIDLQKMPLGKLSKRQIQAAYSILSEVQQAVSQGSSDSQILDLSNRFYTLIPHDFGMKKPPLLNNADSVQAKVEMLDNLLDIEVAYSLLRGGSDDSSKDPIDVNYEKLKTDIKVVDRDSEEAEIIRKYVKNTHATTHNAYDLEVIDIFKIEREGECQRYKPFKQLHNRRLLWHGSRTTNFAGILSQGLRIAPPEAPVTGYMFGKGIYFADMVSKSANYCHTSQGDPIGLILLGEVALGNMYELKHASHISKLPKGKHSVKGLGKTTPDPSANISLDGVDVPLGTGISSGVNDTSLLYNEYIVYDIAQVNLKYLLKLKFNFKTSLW

SMILES | Ki [1] [nM] | Ki [nM]
O=C(c1cc(Cc2n[nH]c(=O)c3c2NCCC3)ccc1F)N1CCN(S(=O)(=O)c2ccccc2)CC1 [Example 562, 8-(4-fluoro-3-{[4-(phenylsulfonyl)piperazin-1-yl]carbonyl}benzyl)-2,3,4,6-tetrahydropyrido[2,3-d]pyridazin-5(1H)-one] | 0.9 | –
O=C(CN1CCN(C(=O)c2cc(Cc3n[nH]c(=O)c4c3NCCC4)ccc2F)CC1)N1CCCC1 [Example 532, 8-(4-fluoro-3-{[4-(2-oxo-2-pyrrolidin-1-ylethyl)piperazin-1-yl]carbonyl}benzyl)-2,3,4,6-tetrahydropyrido[2,3-d]pyridazin-5(1H)-one] | 4 | –
Nc1cc(Cc2n[nH]c(=O)c3c2CCCC3)ccc1O [Example 280, 4-(3-amino-4-hydroxybenzyl)-5,6,7,8-tetrahydrophthalazin-1(2H)-one] | 303 | –
O=C(OCc1ccccc1)N1CCN(C(=O)c2cc(Cc3n[nH]c(=O)c4c3CCCC4)ccc2F)CC1 [Example 543, benzyl 4-{2-fluoro-5-[(4-oxo-3,4,5,6,7,8-hexahydrophthalazin-1-yl)methyl]benzoyl}piperazine-1-carboxylate] | – | 5
O=C(c1cnccn1)N1CCCN(C(=O)c2cc(Cc3n[nH]c(=O)c4c3NCCC4)ccc2F)CC1 [Example 693, 8-(4-fluoro-3-{[4-(pyrazin-2-ylcarbonyl)-1,4-diazepan-1-yl]carbonyl}benzyl)-2,3,4,6-tetrahydropyrido[2,3-d]pyridazin-5(1H)-one] | 2 | –
O=c1[nH]nc(Cc2ccc(-c3ccc(Cc4n[nH]c(=O)c5c4CCCC5)cn3)nc2)c2c1CCCC2 [Example 109, 4-((5′-((4-oxo-3,4,5,6,7,8-hexahydrophthalazin-1-yl)methyl)-2,2′-bipyridin-5-yl)methyl)-5,6,7,8-tetrahydrophthalazin-1(2H)-one] | 609 | –
CS(=O)(=O)Nc1cccc(-c2cc(CCc3n[nH]c(=O)c4c3CCCC4)ccc2F)c1 [Example 273, N-(2′-fluoro-5′-(2-(4-oxo-3,4,5,6,7,8-hexahydrophthalazin-1-yl)ethyl)-1,1′-biphenyl-3-yl)methanesulfonamide] | 257 | –
O=C(c1cc(Cc2n[nH]c(=O)c3c2CCCC3)ccc1F)N1CCN(C(=O)N2CCOCC2)CC1 [Example 533, 4-(4-fluoro-3-{[4-(morpholin-4-ylcarbonyl)piperazin-1-yl]carbonyl}benzyl)-5,6,7,8-tetrahydrophthalazin-1(2H)-one] | 2 | –
Cc1ccccc1CCNC(=O)c1cccc(Cc2n[nH]c(=O)c3c2CCCC3)c1 [Example 376, N-(2-(2-methylphenyl)ethyl)-3-((4-oxo-3,4,5,6,7,8-hexahydrophthalazin-1-yl)methyl)benzamide] | 173 | –
O=C(c1ccc(Cl)nc1)N1CCN(C(=O)c2cc(Cc3n[nH]c(=O)c4c3NCCC4)ccc2F)CC1 [Example 646] | 0.7 | –
Cn1cnc(C(=O)N2CCCN(C(=O)c3cc(Cc4n[nH]c(=O)c5c4CCCC5)ccc3F)CC2)c1 [Example 636, 4-[4-fluoro-3-({4-[(1-methyl-1H-imidazol-4-yl)carbonyl]-1,4-diazepan-1-yl}carbonyl)benzyl]-5,6,7,8-tetrahydrophthalazin-1(2H)-one] | 1.8 | –
CC(C)(C)NC(=O)Nc1cc(Cc2n[nH]c(=O)c3c2CCCC3)ccc1F [Example 542, N-(tert-butyl)-N′-{2-fluoro-5-[(4-oxo-3,4,5,6,7,8-hexahydrophthalazin-1-yl)methyl]phenyl}urea] | 548 | –
Cc1ccnc(SCC(=O)Nc2cccc(Cc3n[nH]c(=O)c4c3CCCC4)c2)n1 [Example 167, 2-((4-methylpyrimidin-2-yl)thio)-N-(3-((4-oxo-3,4,5,6,7,8-hexahydrophthalazin-1-yl)methyl)phenyl)acetamide] | 56 | –
O=C(c1cscn1)N1CCN(C(=O)c2cc(Cc3n[nH]c(=O)c4c3CCCC4)ccc2F)CC1 [Example 674, 4-(4-fluoro-3-{[4-(1,3-thiazol-4-ylcarbonyl)piperazin-1-yl]carbonyl}benzyl)-5,6,7,8-tetrahydrophthalazin-1(2H)-one] | 1.1 | –
O=C(NC1CCCCC1)c1cc(Cc2n[nH]c(=O)c3c2CCCC3)ccn1 [Example 77, N-cyclohexyl-4-((4-oxo-3,4,5,6,7,8-hexahydrophthalazin-1-yl)methyl)pyridine-2-carboxamide] | 195 | –
CN(C)C(=O)CN1CCN(C(=O)c2cc(Cc3n[nH]c(=O)c4c3NCCC4)ccc2F)CC1 [Example 560, 2-(4-{2-fluoro-5-[(5-oxo-1,2,3,4,5,6-hexahydropyrido[2,3-d]pyridazin-8-yl)methyl]benzoyl}piperazin-1-yl)-N,N-dimethylacetamide] | 2 | –
O=C(Nc1cccc(Cc2n[nH]c(=O)c3c2CCCC3)c1)c1ncccc1O [Example 212, 3-hydroxy-N-(3-((4-oxo-3,4,5,6,7,8-hexahydrophthalazin-1-yl)methyl)phenyl)pyridine-2-carboxamide] | 65 | –
Cc1cccc(OCC(=O)Nc2cccc(Cc3n[nH]c(=O)c4c3CCCC4)c2)c1 [Example 148, 2-(3-methylphenoxy)-N-(3-((4-oxo-3,4,5,6,7,8-hexahydrophthalazin-1-yl)methyl)phenyl)acetamide] | 74 | –
O=C(CCCC(=O)Nc1cc(Cc2n[nH]c(=O)c3c2CCCC3)ccc1F)Nc1ccccc1 [Example 457, N-(2-fluoro-5-((4-oxo-3,4,5,6,7,8-hexahydrophthalazin-1-yl)methyl)phenyl)-N′-phenylpentanediamide] | 0.7 | –

SMILES | Ki [1] [nM] | Ki [nM]
O=C(Nc1cccc2c(O)cccc12)c1cccc(Cc2n[nH]c(=O)c3c2CCCC3)c1 [Example 367, N-(5-hydroxy-1-naphthyl)-3-((4-oxo-3,4,5,6,7,8-hexahydrophthalazin-1-yl)methyl)benzamide] | 45 | –
O=C(Nc1cccc(Cc2n[nH]c(=O)c3c2CCCC3)c1)c1ccoc1 [Example 194, N-(3-((4-oxo-3,4,5,6,7,8-hexahydrophthalazin-1-yl)methyl)phenyl)-3-furamide] | 61 | –
O=C(NCCN1CCCC1=O)c1cc(Cc2n[nH]c(=O)c3c2CCCC3)ccc1F [Example 714, 2-fluoro-5-[(4-oxo-3,4,5,6,7,8-hexahydrophthalazin-1-yl)methyl]-N-[2-(2-oxopyrrolidin-1-yl)ethyl]benzamide] | 0.8 | –
Cc1ccc(C(=O)Nc2cccc(Cc3n[nH]c(=O)c4c3CCCC4)c2)c(O)c1 [Example 225, 2-hydroxy-4-methyl-N-(3-((4-oxo-3,4,5,6,7,8-hexahydrophthalazin-1-yl)methyl)phenyl)benzamide] | 41 | –
COc1ccccc1N1CCN(C(=O)c2cc(Cc3n[nH]c(=O)c4c3NCCC4)ccc2F)CC1 [Example 631, 8-(4-fluoro-3-{[4-(2-methoxyphenyl)piperazin-1-yl]carbonyl}benzyl)-2,3,4,6-tetrahydropyrido[2,3-d]pyridazin-5(1H)-one] | 2.8 | –
Cc1ccc(C)c(CCNC(=O)c2cccc(Cc3n[nH]c(=O)c4c3CCCC4)c2)c1 [Example 399, N-(2-(2,5-dimethylphenyl)ethyl)-3-((4-oxo-3,4,5,6,7,8-hexahydrophthalazin-1-yl)methyl)benzamide] | 65 | –
CC(=O)c1ccc(C(=O)Nc2cccc(Cc3n[nH]c(=O)c4c3CCCC4)c2)cc1 [Example 226, 4-acetyl-N-(3-((4-oxo-3,4,5,6,7,8-hexahydrophthalazin-1-yl)methyl)phenyl)benzamide] | 40 | –
CC(C)(C)OC(=O)N1CCC(NC(=O)c2cc(Cc3n[nH]c(=O)c4c3NCCC4)ccc2F)CC1 [Example 699, tert-butyl 4-({2-fluoro-5-[(5-oxo-1,2,3,4,5,6-hexahydropyrido[2,3-d]pyridazin-8-yl)methyl]benzoyl}amino)piperidine-1-carboxylate] | 74 | –
O=C(NC1CCN(C(=O)c2cccnc2)CC1)c1cc(Cc2n[nH]c(=O)c3c2NCCC3)ccc1F [Example 724, 2-fluoro-5-[(5-oxo-1,2,3,4,5,6-hexahydropyrido[2,3-d]pyridazin-8-yl)methyl]-N-[1-(pyridin-3-ylcarbonyl)piperidin-4-yl]benzamide] | 7 | –
COc1ccc(CCNC(=O)c2cccc(Cc3n[nH]c(=O)c4c3CCCC4)c2)cc1OC [Example 405, N-(2-(3,4-dimethoxyphenyl)ethyl)-3-((4-oxo-3,4,5,6,7,8-hexahydrophthalazin-1-yl)methyl)benzamide] | 19 | –
Cc1nc2cc(C(=O)N3CCN(C(=O)c4cc(Cc5n[nH]c(=O)c6c5NCCC6)ccc4F)CC3)ccc2[nH]1 [Example 654] | 1.2 | –
CC(C)N(Cc1ccccc1)C(=O)c1cccc(Cc2n[nH]c(=O)c3c2CCCC3)c1 [Example 421, N-benzyl-N-isopropyl-3-((4-oxo-3,4,5,6,7,8-hexahydrophthalazin-1-yl)methyl)benzamide] | 68 | –
CN(C)CCN(C)C(=O)c1cc(Cc2n[nH]c(=O)c3c2CCCC3)ccc1F [Example 504, N-[2-(dimethylamino)ethyl]-2-fluoro-N-methyl-5-[(4-oxo-3,4,5,6,7,8-hexahydrophthalazin-1-yl)methyl]benzamide] | 3.6 | –
O=C(Nc1cccc(Cc2n[nH]c(=O)c3c2CCCC3)c1)c1cc(F)cc(F)c1 [Example 184, 3,5-difluoro-N-(3-((4-oxo-3,4,5,6,7,8-hexahydrophthalazin-1-yl)methyl)phenyl)benzamide] | 154 | –
CCCc1ccc(C(=O)Nc2cccc(Cc3n[nH]c(=O)c4c3CCCC4)c2)cc1 [Example 185, N-(3-((4-oxo-3,4,5,6,7,8-hexahydrophthalazin-1-yl)methyl)phenyl)-4-propylbenzamide] | 250 | –
O=C(CCC(=O)c1cccs1)Nc1cccc(Cc2n[nH]c(=O)c3c2CCCC3)c1 [Example 166, 4-oxo-N-(3-((4-oxo-3,4,5,6,7,8-hexahydrophthalazin-1-yl)methyl)phenyl)-4-thien-2-ylbutanamide] | 5 | –
O=C(Nc1cccc(Cc2n[nH]c(=O)c3c2CCCC3)c1)c1ccccc1I [Example 245, 2-iodo-N-(3-((4-oxo-3,4,5,6,7,8-hexahydrophthalazin-1-yl)methyl)phenyl)benzamide] | 963 | –
O=C1CCN1c1cc(Cc2n[nH]c(=O)c3c2CCCC3)ccn1 [Example 101, 4-((2-(2-oxoazetidin-1-yl)pyridin-4-yl)methyl)-5,6,7,8-tetrahydrophthalazin-1(2H)-one] | 21 | –
